Measurements taken from US20190106688A1, “FUSION PROTEIN FOR CRISPR/CAS SYSTEM AND COMPLEX COMPRISING THE SAME AND USES THEREOF” (KOREA INSTITUTE OF SCIENCE AND TECHNOLOGY, priority 2017, published 2019).

Tested on: A549 cells and A549 xenografts
Assay: Immunoblot analysis of EGFR downstream signaling (ERK, AKT) in A549 cells and A549 xenografts
Format: cell-based
Details: in vitro and in vivo samples
Experimental: The treated cells or tumor tissues were lysed using an RIPA lysis buffer (Sigma) unsupplemented or supplemented with a phosphatase inhibitor+a protease inhibitor (Thermo Scientific). A total of 50 μg of protein was analyzed by immunoblotting via incubation at 4° C. overnight with Sprimary antibody specific to KRAS (Santa Cruz, 1:200 dilution), p-ERK (cell signal, 1:1000 dilution), ERK (Cell Signaling, 1:1000 dilution), and β-Actin (Abcam, 1:10000 dilution) and then incubation with secondary antibodies conjugated with horseradish peroxidase for 2 hours at room temperature. The proteins were visualized by chemicalluminescence using a Western ECL substrate (Bio-Rad) and luminescence images were analyzed by a LAS-3000 (Fujifilm). Band intensities were quantified using ImageJ software.
FIG. 6D illustrates immunoblot analysis of EGFR downstream signaling pathways in A549 cells and A549 xenografts.

Cn1cnc2c(F)c(Nc3ccc(Br)cc3Cl)c(C(=O)NOCCO)cc21 [AZD6244]
activation (phosphorylation) of ERK: inhibited only activation of ERK
